Measurements reported in patent US9775902B2, “Compounds and methods for treatment of stroke” (FIBROGEN, INC, priority 2006, dated 2017).
Like-named read-outs stand apart in the source and are kept apart here.

Assays:
[1] = tested on: C57BL/6 mice, permanent occlusion of the MCA; experiment: Permanent middle cerebral artery occlusion (pMCAO) in C57BL/6 mice: infarct volume and edema; format: in vivo; details: Mus musculus, iv, 24 h, C57BL/6 mice pMCAO, 20-60 mg/kg i.v., 24 hours after MCA occlusion, read-out: Percent Reduction in Infarct Volume
Protocol: The effect of compounds of the present invention on infarct volume and edema associated with stroke was examined in an animal model of ischemic stroke. In these studies, mice were subjected to permanent occlusion of the middle cerebral artery. Mice were anesthetized intraperitoneally with avertin (0.5 mg/g). Mice were then immobilized in a rodent stereotaxic frame (Kopf Instruments, Tujunga Calif.) and maintained with avertin as needed. The surgical area of the head was swabbed with 70% ethanol and a lateral incision was made between the right orbit and the right ear. […] The distal course of the middle cerebral artery (MCA) was visible through the translucent skull. A small burr-hole craniotomy was performed with a micro-drill (Fine Science Tools, Foster City Calif.). The meninges/dura was removed and the MCA was coagulated by bipolar diathermy. The muscle and soft tissue were replaced and the incision closed with vet-bond adhesive (3M, St. Paul Minn.). These studies were performed in two different mouse models of pMCAO as described below.
In one series of experiments, male C57BL/6 mice (25-35 g) were subjected to permanent occlusion of the MCA as described above. Compounds of the present invention were administered by intravenous injection at various times before or after MCA occlusion (see Table 7). Animals administered compound by intravenous injection received a 6 ml/kg volume of either 5% Dextrose with an equimolar amount of Meglumine (vehicle control) or 20-60 mg/kg of a compound of the present invention in 5% dextrose with an equimolar amount of Meglumine. Body temperature of the animals was maintained by use of a heating pad both during and after surgery. Twenty-four hours after MCA occlusion animals were euthanized with CO2 and their brains removed. After removal, the brain was sliced in 7 coronal sections, each 1 mm thick. The sections were placed rostral side down in a petri dish and stained with 1% Triphenyl tetrazolium chloride for 20 minutes at 37° C. for determination of infarct volume. Brain sections were then digitally photographed and analyzed for changes in infarct volume and extent of edema. Infarct volumes were determined by measuring the infarcted (i.e., non-stained) areas of each brain section and multiplying this value by the section thickness. Extent of edema was determined by the net increase in volume of the ipsilateral cortex compared to that of the contralateral cortex of brain sections.
The effect of compounds of the present invention administered at various times following the onset of stroke was examined further as follows. In these studies, changes in infarct volume were measured using an animal model of stroke when compounds of the present invention were administered from 0 to 8 hours following permanent MCA occlusion. In one series of experiments, male C57BL/6 mice (25-35 g) were subjected to permanent occlusion of the MCA as described above. Compound F was administered to the animals by a single intravenous bolus injection at various times up to 5 hours after MCA occlusion (see Table 8 below). Animals administered compound by intravenous injection received a 6 ml/kg volume of either 5% Dextrose with an equimolar amount of NaOH (vehicle control) or 60 mg/kg of Compound F in 5% dextrose with an equimolar amount of NaOH. Body temperature of the animals was maintained by use of a heating pad both during and after surgery. Changes in infarct volumes were determined as described above.
In another set of experiments, male C57BL/6 mice (25-35 g) were subjected to permanent occlusion of the MCA as described above. Compound F was administered by single intravenous bolus injection at various times up to 8 hours after MCA occlusion (see Table 9 below). Animals administered compound by intravenous injection received a 6 ml/kg volume of either 5% Dextrose with an equimolar amount of Meglumine (vehicle control) or 60 mg/kg of Compound F in 5% dextrose with an equimolar amount of Meglumine. […]

erythropoietin (EPO) [2] = experiment: EPO expression in Kelly neuroblastoma cells; format: cell-based; details: for EPO: conditioned media after overnight incubation
Protocol: (§1) The effect of compounds of the present invention on expression of cytoprotective and neuroprotective factors in neuroblastoma cells was evaluated as follows. Kelly neuroblastoma cells (see, e.g., DSMZ, cat# ACC-355, Braunschweig Germany) were treated with various compounds of the present invention or 1% DMSO (negative control). Following an overnight incubation, the conditioned media was collected from cell cultures and analyzed for erythropoietin (EPO) and vascular endothelial growth factor (VEGF) expression using a QUANTIKINE immunoassay (R&D Systems, Inc., Minneapolis Minn.) according to the manufacturer's instructions.

erythropoietin [3] = experiment: Plasma EPO in mice after intravenous injection; format: in vivo, Swiss Webster mice; details: mouse plasma, 20 mg/kg i.v., four hours after injection; for fold induction at 20 mg/kg: iv, 4 h, read-out: EPO Fold Increase
Protocol: (§2) The effect of compounds of the present invention on expression of cytoprotective and neuroprotective factors in vivo was evaluated as follows. In one series of experiments, male Swiss Webster mice (29-34 g) were administered various compounds of the present invention via intravenous injection into the caudal tail vein. Animals treated by intravenous injection received a 6 ml/kg volume of either 5% Dextrose with an equimolar amount of NaOH or Meglumine (vehicle control) or 20 mg/kg of a compound of the present invention in 5% dextrose with an equimolar amount of NaOH or Meglumine. Four hours after injection, the animals were anesthetized and exsanguinated. Plasma samples were collected in EDTA and heparin coated microtainer tubes. Plasma samples were assayed for erythropoietin and VEGF using commercially-available ELISA kits purchased from R & D Systems (Minneapolis Minn.).

[4] = tested on: vascular endothelial growth factor (VEGF); experiment: VEGF expression in Kelly neuroblastoma cells; format: cell-based; details: for VEGF: conditioned media after overnight incubation
Protocol: as §1

VEGF [5] = experiment: Plasma VEGF in mice after intravenous injection; format: in vivo, Swiss Webster mice; details: mouse plasma, 20 mg/kg i.v., four hours after injection; for fold induction at 20 mg/kg: iv, 4 h, read-out: VEGF Fold Increase
Protocol: as §2

erythropoietin (EPO) [6] = experiment: EPO expression in Hep3B cells (QUANTIKINE immunoassay of conditioned media); format: cell-based, Human; details: for Fold Increase Over Control: EPO, vs 1% DMSO control; for EPO: conditioned media after overnight incubation with compound
Protocol: The effect of compounds of the present invention on expression of cytoprotective and neuroprotective factors in cells was evaluated as follows. Human cells derived from hepatocarcinoma (Hep3B) tissue (see, e.g., American Type Culture Collection, Manassas Va.) were seeded into 35 mm culture dishes and grown at 37° C., 20% O2, 5% CO2 in Minimal Essential Medium (MEM), Earle's balanced salt solution (Mediatech Inc., Herndon Va.), 2 mM L-glutamine, 0.1 mM non-essential amino acids, 1 mM sodium pyruvate, and 10% FBS. When cell layers reached confluence, the media was replaced with OPTI-MEM media (Invitrogen Life Technologies, Carlsbad Calif.) and cell layers were incubated for approximately 24 hours in 20% O2, 5% CO2 at 37° C. Various compounds of the present invention or 1% DMSO (negative control) were then added to existing media and incubation was continued overnight.
Following incubation, the conditioned media was collected from cell cultures and analyzed for erythropoietin (EPO) expression using a QUANTIKINE immunoassay (R&D Systems, Inc., Minneapolis Minn.) according to the manufacturer's instructions.

erythropoietin [7] = experiment: Plasma EPO in mice after oral gavage; format: in vivo, Swiss Webster mice; details: mouse plasma, oral gavage 6-60 mg/kg, six hours; for EPO: human EPO ELISA kit (*)
Protocol: (§3) In another series of experiments, male Swiss Webster mice (29-34 g) were administered various compounds of the present invention via oral gavage using a ball-tipped gavage needle. Animals treated by oral gavage received a 4-10 ml/kg volume of either 0.5% carboxymethyl cellulose with or without 0.1% Polysorbate 80 (vehicle control) or various doses (6-60 mg/kg) of a compound of the present invention in 0.5% CMC, with or without 0.1% Polysorbate 80. Blood samples were collected and tissues were processed as described above. Six hours after injection, the animals were anesthetized and exsanguinated.
(§4) Plasma samples were collected in EDTA and heparin coated microtainer tubes. Plasma samples were assayed for erythropoietin and VEGF using commercially-available ELISA kits purchased from R & D Systems (Minneapolis Minn.).

VEGF [8] = experiment: Plasma VEGF in mice after oral gavage; format: in vivo, Swiss Webster mice; details: mouse plasma, oral gavage 6-60 mg/kg, six hours
Protocol: as §3, §4

[9] = compound given 4 hr after occlusion

| SMILES | inhibition in vivo at up to 20 mg/kg [1, 9] | EPO Fold Increase (erythropoietin (EPO) [2]) | EPO (erythropoietin (EPO) [2]) | fold induction at 20 mg/kg (erythropoietin [3]) | EPO (erythropoietin [3]; mouse EPO ELISA kit (**)) | VEGF Fold Increase [4] | VEGF [4] | fold induction at 20 mg/kg (VEGF [5]) | VEGF (VEGF [5]) | Fold Increase Over Control (erythropoietin (EPO) [6]) | EPO (erythropoietin (EPO) [6]) | EPO Fold Increase (erythropoietin [7]) | EPO (erythropoietin [7]) | EPO (erythropoietin [3]; human EPO ELISA kit (*)) | VEGF (VEGF [8]) | VEGF Fold Increase (VEGF [8]) | inhibition in vivo at up to 20 mg/kg ([1]; compound given 0 hr) |
| --- | --- | --- | --- | --- | --- | --- | --- | --- | --- | --- | --- | --- | --- | --- | --- | --- | --- |
| N#Cc1nc(C(=O)NCC(=O)O)c(O)c2cc(Oc3ccc4c(c3)OCO4)ccc12 [Compound AN, {[6-(Benzo[1,3]dioxol-5-yloxy)-1-cyano-4-hydroxy-isoquinoline-3-carbonyl]-amino}-acetic acid] | 46% | 13.28 | 251 mIU/ml | 26.2 | 14964 pg/mL | 5.3 | 7252 pg/mL | 1.05 | 39 pg/mL | 16.2 | 42.8 mIU/ml | – | – | – | – | – | – |
| N#Cc1nc(C(=O)NCC(=O)O)c(O)c2cc(Oc3ccc4c(c3)CCO4)ccc12 [Compound AO, {[1-Cyano-6-(2,3-dihydro-benzofuran-5-yloxy)-4-hydroxy-isoquinoline-3-carbonyl]-amino}-acetic acid] | 55% | 19.55 | 369.5 mIU/ml | 92.8 | 12719 pg/mL | 4.6 | 6653 pg/mL | 0.97 | 38 pg/mL | 83.4 | 83.4 mIU/ml | – | – | – | – | – | – |
| CC(NC(=O)c1ncc2cc(Oc3ccccc3)ccc2c1O)C(=O)O (stereo not drawn) [Compound I, 2-[(4-Hydroxy-7-phenoxy-isoquinoline-3-carbonyl)-amino]-propionic acid] | – | 3.4 | 14.8 mIU/ml | 155 | – | 7.2 | 2370.0 pg/mL | 2.13 | 77.8 pg/mL | – | 41.0 mIU/ml | 16.46 | 21.4 mIU/ml | 62.1 mIU/ml | 62.7 pg/mL | 2.71 | – |
| Cc1nc2ccc(Oc3ccc4c(O)c(C(=O)NCC(=O)O)ncc4c3)cc2o1 [Compound N, {[4-Hydroxy-7-(2-methyl-benzooxazol-6-yloxy)-isoquinoline-3-carbonyl]-amino}-acetic acid] | – | 14.52 | 380.5 mIU/ml | 70.2 | 63.2 pg/mL | 4.6 | 6316 pg/mL | 2.28 | 66 pg/mL | 13.5 | 89.9 mIU/ml | – | – | – | – | – | 46% |
| Cc1nc(C(=O)NCC(=O)O)c(O)c2cc(-c3ccc(F)cc3)sc12 [Compound P, {[2-(4-Fluoro-phenyl)-4-hydroxy-7-methyl-thieno[2,3-c]pyridine-5-carbonyl]-amino}-acetic acid] | – | 13.90 | 262.8 mIU/ml | 5.88 | 62.3 pg/mL | 5.1 | 7453 pg/mL | 1.15 | 45 pg/mL | 7.2 | 54.9 mIU/ml | – | – | – | – | – | 37% |
| N#Cc1nc(C(=O)NCC(=O)O)c(O)c2ccc(Oc3ccc(F)cc3)cc12 [Compound R, {[1-Cyano-7-(4-fluoro-phenoxy)-4-hydroxy-isoquinoline-3-carbonyl]-amino}-acetic acid] | – | 19.71 | 372.6 mIU/ml | 52.4 | 555.5 pg/mL | 7.4 | 2735 pg/mL | 1.38 | 54 pg/mL | 25.3 | 49.1 mIU/ml | – | – | – | – | – | 32% |
| CC(NC(=O)c1ncc2cc(Sc3ccccc3)ccc2c1O)C(=O)O (stereo not drawn) [Compound Y, 2-[(4-Hydroxy-7-phenylsulfanyl-isoquinoline-3-carbonyl)-amino]-propionic acid] | – | – | – | – | – | – | – | – | – | – | – | 8.85 | 11.5 mIU/ml | – | 52.7 pg/mL | 2.28 | – |
